We go through one compound from patent publication US8889672B2, “Compounds, formulations, and methods of protein kinase C inhibition” (The Regents of The University of Michigan, priority 2011, dated 2014).

SMILES strings stand for the structures.

One may read the IC50 as the point on the concentration scale where inhibition reaches its midpoint. High values mean lower potency, low ones higher potency.

The target in this experiment is aPKCζ (Homo sapiens (Human), UniProt Q05513). The experiment is described as follows: Kinase-Glo end-point assay, IC50 against aPKCζ. The settings on record: 125 ng/ml aPKCζ, 25 μM CREBtide, 0.1 μM ATP. Background: Kinase-Glo reads ATP consumption through a luciferase reaction.
Sequence of aPKCζ (Q05513 whole entry): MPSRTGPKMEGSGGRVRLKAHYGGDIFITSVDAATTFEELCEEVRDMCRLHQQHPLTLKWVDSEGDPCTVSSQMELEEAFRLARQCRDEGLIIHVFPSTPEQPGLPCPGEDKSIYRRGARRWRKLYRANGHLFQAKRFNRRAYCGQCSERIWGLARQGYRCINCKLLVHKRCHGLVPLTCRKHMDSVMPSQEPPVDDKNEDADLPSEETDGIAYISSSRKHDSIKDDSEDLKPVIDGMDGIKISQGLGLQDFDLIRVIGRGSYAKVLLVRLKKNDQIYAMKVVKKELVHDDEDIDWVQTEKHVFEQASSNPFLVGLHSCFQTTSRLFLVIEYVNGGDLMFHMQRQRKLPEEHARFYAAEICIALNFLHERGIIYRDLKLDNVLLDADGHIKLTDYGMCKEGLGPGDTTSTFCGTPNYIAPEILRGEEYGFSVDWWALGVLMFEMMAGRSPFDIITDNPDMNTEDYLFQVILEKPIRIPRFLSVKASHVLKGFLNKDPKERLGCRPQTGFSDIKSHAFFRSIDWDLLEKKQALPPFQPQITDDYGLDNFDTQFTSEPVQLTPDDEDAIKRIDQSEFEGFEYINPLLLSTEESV

On to `CCOC(=O)c1c(NC(C)=O)sc(C(C)=O)c1-c1ccc(Cl)cc1` [APOGEE B], for which the IC50 amounted to 71 µM.
